From patent USRE28700E, “Antibiotic X-5108 for stimulating growth” (Hoffmann-La Roche Inc., priority 1972, dated 1976)
Read-outs that look alike come from different tables or passages of the source.

Key:
Streptococcus pyogenes = assay: Activity against Streptococcus pyogenes infection (CD50); assay type: in vivo
Bacillus simplex = assay: Agar diffusion cup-plate assay, Bacillus simplex; assay type: cell-based; conditions: arbitrarily defined 1 unit/ml. solution
Method: (§1) The activity of antibiotic X-5108 can be measured in vitro by its zone of inhibition against the gram-positive bacterium Bacillus E in the usual cup-plate agar diffusion method. Alternately the gram-positive bacterium Bacillus simplex can be employed. Both bacteria give approximately 20 mm. inhibition zones with an arbitrarily defined 1 unit/ml. solution. In this assay method, a culture of the test microorganism is grown in nutrient broth, for example, Trypticase Soy Broth, for 24 to 42 hours at 28° C. in a rotary shaker (100 ml. medium per 500 ml. Erlenmeyer flask). An inoculum concentration of 0.25 to 0.5 percent is used to inoculate the 4 ml. seed layer which is poured over a prehardened 20 ml. of base nutrient agar layer in a 100 ml. glass or disposable plastic Petri dish. The plates are refrigerated for at least two hours before cupping and filling with test solution containing the antibiotic. The plates are then incubated at 35° C. for 18 hours and zone diameters are measured to the nearest 0.5 mm. Calculations of unit per ml. potencies are then made from standard curves.
(§2) The antimicrobial spectrum was determined by employing agar diffusion cup-plate assays as described earlier.

Proteus vulgaris = assay: Activity against gram-negative Proteus vulgaris infection; conditions: in vivo
Diplococcus pneumoniae = assay: Activity against Diplococcus pneumoniae (CD50); assay type: in vivo
[1] = Growth promotion in poultry (general statement); assay type: in vivo
[2] = test system: a variety of microorganisms including gram-positive and gram-negative bacteria; assay: Antimicrobial activity in general / biopotency; assay type: cell-based
Method: as §1, §2

[3] = Growth stimulating effect and feed efficiency in broiler chicks (Table 12); assay type: in vivo, Cornish Cross Sexed Broiler Chicks
Method: A basal ration was prepared containing the following named ingredients in the quantities hereinafter indicated: […]
Antibiotic X-5108 was added to this ration in a ratio of 50 milligrams of antibiotic per kilogram of ration.
(§3) The growth stimulating effects of antibiotic X-5108 were determined by allowing poultry to feed, ad libitum, on the antibiotic supplemented ration. In the test, one day old Cornish Cross Sexed Broiler Chicks were used. The test utilized 10 chicks per replicate (5 males and 5 females). The replicate groups were permitted access to the ration. A planned random distribution of the replicates was made to equalize factors of heating, light and position. The birds were observed over a two week period, with group weight being determined several times during the period and individual weights being determined at the end of 14 days. Feed consumption was also recorded and improvement in feed efficiency, as compared to the control, was calculated.
(§4) The average gain for each test group is divided by the average gain of the negative control group and the quotient multiplied by 100 to yield the percent weight gain. Gain is the final body weight of the chick at the end of the 2 week test minus the beginning weight of 1 day of age. [formula]

[4] = Growth stimulating effect and feed efficiency in chicks, repeated trials at varied levels (Table 13); assay type: in vivo, Cornish Cross Sexed Broiler Chicks; conditions: for Percent gain: control = 100
Method: as §3, §4
The experiment described in Example 5, including the control, was repeated several times using the same basal ration as in Example 5. In these trials the level of antibiotic X-5108 was varied. The trial chickens were fed on supplemented feed rations containing the active ingredient in a ratio of 5, 10, 25, 50 and 100 mg. per kg. of feed. These trials were repeated to confirm the results. In the control test four replicates of ten birds were allowed to feed on a basal ration devoid of the antibiotic supplement. […] Feed consumption was also recorded and improvements in feed efficiency in comparison to the control were calculated. Table 13 records the results of this series of experiments.

caecal coccidiosis = assay: Activity in caecal coccidiosis; conditions: in vivo
mice = assay: Acute toxicity in mice (LD50), oral and subcutaneous; assay type: in vivo
Bacillus E = assay: Agar diffusion cup-plate assay, Bacillus E; assay type: cell-based
Method: as §1, §2

For `C/C=C\C=C\[C@@H]1O[C@](O)([C@H](CC)C(=O)NC/C=C/C=C(\C)[C@@H](OC)[C@@H](C)[C@@H]2O[C@H](/C=C/C=C/C=C(\C)C(=O)c3c(O)ccn(C)c3=O)[C@H](O)[C@@H]2O)[C@H](O)[C@H](O)C1(C)C` [Antibiotic X-5108], the CD50 (Streptococcus pyogenes; orally) was 52 mg/kg, the CD50 (Streptococcus pyogenes; subcutaneously) was 44 mg/kg and the “antistreptococcal activity (in words)” value (Streptococcus pyogenes; systemically (oral route) and local (subcutaneous route)) was “marked antistreptococcal activity”. The inhibition zone (Bacillus simplex) was “approximately 20 mm”, the “activity against Proteus vulgaris infection (in words)” value (Proteus vulgaris) was “active” and the “activity against pneumococcus (in words)” value (Diplococcus pneumoniae; in vivo) was “activity against pneumococcus”. For the same compound, the CD50 (Diplococcus pneumoniae; p.o.) was 807 mg/kg, the CD50 (Diplococcus pneumoniae; sbc (subcutaneous)) was 283 mg/kg and the “feed efficiency in poultry (in words)” value [1] was “enhanced feed efficiency”. The “growth promotion in poultry (in words)” value [1] was “exhibits activity as a poultry growth promotant”, the “growth promotion in poultry (in words)” value ([1]; listed as antibiotic X-5108) was “marked growth promotion in poultry” and the “bipotency relative to starting material” value ([2]; after countercurrent distribution, Example 3) was “approximately twice that of the starting material”. The “antimicrobial spectrum (in words)” value ([2]; agar diffusion cup-plate) was “broad antimicrobial spectrum”, the “activity against a variety of microorganisms (in words)” value ([2]; crude or more purified form) was “active against a variety of microorganisms including gram-positive and gram-negative bacteria” and the “growth rate compared to control (in words)” value ([3]; 50 mg. per kilogram of feed) was “increased growth rate”. For the same compound, the “improvement in feed efficiency” value ([3]; 50 mg. per kilogram of feed, vs control) was 10%, the “Two-week gain, g. ±2SE” value ([3]; 50 mg./kg. feed, average for 40 chicks, basal control 154±8) was 185 ± 12 g and the Feed efficiency ([3]; 50 mg./kg. feed, two weeks, control 1.55) was 1.39. The Percent gain ([3]; 50 mg./kg. feed, two weeks, control = 100) was 120%, the “Percent improved feed efficiency” value ([3]; 50 mg./kg. feed, vs control) was “+12%” and the “Percent improved feed eff.” value ([4]; 10 mg./kg., 18 birds) was “+13%”. The Feed eff. ([4]; 10 mg./kg., 18 birds, control 1.54) was 1.41, the “Two-week gain” value ([4]; 10 mg./kg., 18 birds, control 149) was 185 g and the Percent gain ([4]; 10 mg./kg., 18 birds) was 124%. The “Percent improved feed eff.” value ([4]; 25 mg./kg., 18 birds) was “+16%”, the Feed eff. ([4]; 25 mg./kg., 18 birds, control 1.59) was 1.37 and the “Two-week gain” value ([4]; 25 mg./kg., 18 birds, control 146) was 180 g. For the same compound, the Percent gain ([4]; 25 mg./kg., 18 birds) was 123%, the “Percent improved feed eff.” value ([4]; 50 mg./kg., 18 birds) was “+7%” and the Feed eff. ([4]; 50 mg./kg., 18 birds, control 1.47) was 1.38. For the same compound, the “Two-week gain” value ([4]; 50 mg./kg., 18 birds, control 152) was 173 g, the Percent gain ([4]; 50 mg./kg., 18 birds) was 114% and the “Percent improved feed eff.” value ([4]; 50 mg./kg., 24 birds) was “+12%”. The Feed eff. ([4]; 50 mg./kg., 24 birds, control 1.54) was 1.37, the “Two-week gain” value ([4]; 50 mg./kg., 24 birds, control 149) was 175 g and the Percent gain ([4]; 50 mg./kg., 24 birds) was 117%. For the same compound, the “Percent improved feed eff.” value ([4]; 100 mg./kg., 18 birds) was “+14%”, the Feed eff. ([4]; 100 mg./kg., 18 birds, control 1.54) was 1.33 and the “Two-week gain” value ([4]; 100 mg./kg., 18 birds, control 149) was 182 g. The Percent gain ([4]; 100 mg./kg., 18 birds) was 122%, the “Percent improved feed eff.” value ([4]; level not given, 18 birds) was “+9%” and the Feed eff. ([4]; level not given, 18 birds, control 1.51) was 1.39. For the same compound, the “Two-week gain” value ([4]; level not given, 18 birds, control 149) was 183 g, the Percent gain ([4]; level not given, 18 birds) was 123% and the “activity in caecal coccidiosis (in words)” value (caecal coccidiosis) was “activity”. The LD50 (mice; mice, oral) was > 2,000 mg./kg, the “toxicity in mice (in words)” value (mice; mice, orally and subcutaneously) was “relatively atoxic orally and subcutaneously” and the LD50 (mice; mice, subcutaneous) was 1,320 mg./kg. The “oral and parenteral toxicity (in words)” value (mice; oral and parenteral) was “low oral and parenteral toxicity”, the inhibition zone (Bacillus E; arbitrarily defined 1 unit/ml. solution) was “approximately 20 mm” and the “potency against Bacillus E” value (Bacillus E; solid powder after butyl acetate extraction, Example 1) was 120 units Bacillus E per mg.
